Experiment [1] has as its system Src/AMPK signaling in MG-63 cells. The experiment in a line: Immunoblot of Src/AMPK/mTOR signaling. The experiment is classed as cell-based, human. Particulars: then cisplatin 20 μM 24 hr; for LC3-II expression: inhibitor. The procedure:
FIG. 4. GFRα1 regulates autophagy by Src/AMPK signaling in osteosarcoma cells. (a-b) Immunoblot analysis of osteosarcoma cell lysates with antibodies specific for GFRα1, p-Src, Src, p-AMPK, AMPK, p-mTOR, mTOR, p-p70 S6Kinase, Beclin 1, HMGB1, LC3, and β-actin. (a) MG-63 and cells were treated with cisplatin (20 μM) for 24 hr. (b) Control and GFRα1-deficient MG-63 cells were treated with cisplatin (20 μM) for 24 hr. (c-e) Immunoblot analysis of osteosarcoma cell lysates with antibodies specific for GFRα1, p-Src, Src, p-AMPK, AMPK, LC3, and β-actin. (c) Control and Src-deficient MG-63 cells were treated with cisplatin (20 μM) for 24 hr. (d) MG-63 cells were cultured in the presence or absence of PP1 (5 μM) and then treated with cisplatin (20 μM) for 24 hr. (e) MG-63 cells were cultured in the presence or absence of Compound C and then treated with cisplatin (20 μM) for 24 hr. (f) Cell viability of MG-63 cells after cisplatin treatment in the presence of PP1. MG-63 cells were cultured with DMSO or PP1 (2, 5 μM) and then treated with cisplatin (20 μM) for 24 hr. Cell viability was measured using the WST-1 assay. The values are represented as a mean±s.d.m. (n=3). ** denotes p<0.05 by t-test. (g) Cell viability of MG-63 cells after cisplatin treatment in the presence of Compound C. MG-63 cells were cultured with DMSO or Compound C (5, 10 μM) and then treated with cisplatin (20 μM) for 24 hr. Cell viability was measured using the WST-1 assay. The values are represented as a mean±s.d.m. (n=3). ** denotes p<0.05 by t-test.
(§1) Immunoblotting. Cells were washed with PBS and lysed in RIPA Buffer (Pierce, Rockford, Ill.). The protein content was determined using a dye-binding microassay (Bio-Rad, Hercules, Calif.), and 10-50 μg protein per lane was electrophoresed on 4-12% SDS polyacrylamide gels. Proteins were blotted onto Hybond ECL membranes (Amersham Pharmacia Biotech, Piscataway, N.J.). Two protein ladders were used for molecular weight determination (GenDEPOT, Barker, Tex.). The blotted proteins were detected using an enhanced chemiluminescence detection system (iNtRON, Seoul, Korea). Data were quantified and analyzed with Image-J software.
(In general: A western blot detects proteins with antibodies after separation by electrophoresis.)

The subject of experiment [2] is GFRα1 expression in MG-63 and U-2 OS cells. The experiment can be described thus: Immunoblot of GFRα1 expression after chemotherapeutic agents. The experiment is classed as cell-based, human. Particulars: doxorubicin 5 μM, cisplatin 20 μM, methotrexate 1 mM, 24 hr. The procedure: FIG. 1. Cisplatin induces GFRα1 expression in osteosarcoma cells. (a-c) Immunoblot analysis of osteosarcoma cell lysates with antibodies specific for GFRα1 and β-actin. (a) MG-63 and U-2 OS cells were treated with doxorubicin (5 μM), cisplatin (20 μM), or methotrexate (1 mM) for 24 hr. Immunoblot analysis of GFRα1 (left) and quantification of GFRα1 expression (right) after treatment of chemotherapeutic agents. (b) MG-63 and U-2 OS cells were treated with different concentrations of cisplatin for 24 hr. (c) MG-63 and U-2 OS cells were treated with cisplatin (20 μM) and collected at the indicated time. (d and e) Quantitative real-time PCR of GFRα1 mRNA expression after cisplatin treatment. Representative images (top) and quantitative analysis (bottom) of GFRα1 mRNA expression. The values are presented as a mean±s.d.m (n=3). ** denotes p<0.05 by t-test. (d) MG-63 and U-2 OS cells were treated with different concentrations of cisplatin for 24 hr. (e) MG-63 and U-2 OS cells were treated with cisplatin (20 μM) and collected at the indicated time.
as §1

Experiment [3] concerns GFRα1-deficient MG-63 and U-2 OS cells. The experiment in a line: WST-1 cell viability of GFRα1-deficient (siRNA) osteosarcoma cells. The class given is cell-based, human. The settings on record: GFRα1 siRNA 48 h, then agent 24 h. The procedure: FIG. 6. Cell viability of GFRα1-deficient osteosarcoma cells after treatment of chemotherapeutic agents. MG-63 and U-2 OS cells were transfected with either control siRNA or GFRα1 siRNA for 48 h and then treated with different concentrations of doxorubicin, cisplatin, or methotrexate for 24 h. Cell viability was measured using the WST-1 assay. The values are represented as a mean±s.d.m. (n=3). ** denotes P<0.05 by t-test. (a) MG-63 cells. (b) U-2 OS cells.
Small interfering RNA (siRNA)-based Experiments. Human GFRα1 siRNA, Beclin 1 siRNA, HMGB1 siRNA, AMPK siRNA, c-Src siRNA, NFκB p50 siRNA, APE siRNA and Negative (control) siRNA were purchased from Santa Cruz Biotechnology. Cell lines were transiently transfected with siRNA duplexes using Lipofectamine® RNAiMAX (Life Technologies) according to manufacturer's instructions.
Cell viability assays. WST-1 cell viability assay reagent was purchased from Roche. Equal numbers of cells were seeded in triplicate wells in 48-well plates and maintained in growth medium containing 10% FBS). Cells were cultured with PBS, GDNF (50 ng/mL), GDNF (50 ng/ml)+cisplatin (20 μM), or cisplatin (20 μM) in the presence of serum for 24 hr. Cells were also preincubated with inhibitors (3-MA, PP1, Compound C, Baf and CQ) for 1 hr before stimulating with PBS, GDNF, GDNF+cisplatin, or cisplatin. WST-1 reagent was then treated to the cells at the indicated times and incubated for 2 hr at 37° C. Cell viability was determined by measuring the absorbance after adding WST-1. The spectrophotometric absorbance of the samples was measured using an Ultra Multifunctional Microplate Reader (Tecan, Durham, N.C.) at 450 nm. Experiments were done at least in triplicate using separate cultures.
Background: Tetrazolium assays rely on reduction of a dye to a coloured formazan, in cell work by metabolically active cells.

For experiment [4], the system named is GFRα1-overexpressing MG-63 clone #4. The experiment in a line: Colony-forming assay in the presence of cisplatin. The experiment is classed as cell-based, human. Particulars: cisplatin 20 μM 10 days; 3-MA (10 μM), Baf (100 nM), CQ (30 μg/ml). An excerpt:
FIG. 3. […] Scale bar, 20 μm. […] Scale bar, 20 μm. […] Scale bar, 20 μm.

A further experiment relates to MG-63/GFRα1 tumors. The experiment in a line: MG-63/GFRα1 xenograft in BALB/c nude mice. The class given is in vivo. Particulars: CQ 60 mg/kg, cisplatin 3 mg/kg, once a week. The procedure: FIG. 5. GFRα1-mediated autophagy promotes chemoresistance and tumor growth in vivo. (a) BALB/c nude mice (n =40) were injected with MG-63 cells that were transfected with either control or GFRα1 expressing vector. Tumor volume was measured every 3 or 4 days. Data are shown as mean±SEM. ** p<0.05. (b) BALB/c nude mice (n=20) were injected with MG-63 cells that were transfected with either control or GFRα1 shRNA. Tumor volume was measured every 3 or 4 days. Data are shown as mean±SEM. ** p<0.05. (c) Tumors that were generated from mice injected with MG-63 cells containing GFRα1 expressing vector were directly injected with PBS, CQ, cisplatin, or cisplatin+CQ. Tumor volume was measured every 4 days. Data are shown as mean±SEM. ** p<0.05 vs PBS, CQ, or cisplatin-treated tumors. (d) Left, representative images of immunofluorescence staining of HMGB1 in a section from tumors generated from mice injected with MG-63 cells containing GFRα1 expressing vector and then treated with PBS, CQ, cisplatin, or cisplatin+CQ. Right, quantitative analysis of percentage of cytoplasmic HMGB1-positive cells in HMGB1-positive tumors. The values are represented as a mean±s.d.m. (n=3). ** denotes p<0.05 by t-test. (e) Left, representative images of TUNEL-positive cells in a section from tumors generated from mice injected with MG-63 cells containing GFRα1 expressing vector and then treated with PBS, CQ, cisplatin, or cisplatin+CQ. Right, quantitative analysis of percentage of TUNEL-positive cells in HMGB1-positive tumors. The values are represented as a mean±s.d.m. (n=3). ** denotes p<0.05 by t-test. (0 Survival rate of mice injected with MG-63 cells containing GFRα1 expressing vector and then treated with either cisplatin or cisplatin+CQ. (g) Representative images of immunohistochemical staining of GFRα1 in a section from human osteosarcoma patient before and after cisplatin treatment. (h) Representative images of immunofluorescence staining of GFRα1 and HMGB1 in a section from human osteosarcoma patient before and after cisplatin treatment.
Tumor formation in nude mice. The mice used in this study were 6-week-old female BALB/c nude mice purchased from Orient Bio Inc. (Seongnam, Korea). […] The tumor size was measured with a caliper every 3 or 4 days. […] The tumor size was measured with a caliper every 4 days. […] were calculated from caliper measurements of tumor dimensions in mm using the formula for a prolate ellipsoid: (L×W^2)/2 where L is the longer of the two-measurements.
Statistical analysis. Survival data was analyzed by the Kaplan-Meier and log-rank test with GraphPad Prism v5.04 (GraphPad Software, La Jolla Calif.). Plating efficiency (PE, %)=(Number of colonies counted/Number of cells plated)×100. […] All values are expressed as the mean±standard deviation (SD). […]

On to `c1cc(-c2cnn3cc(-c4ccc(OCCN5CCCCC5)cc4)cnc23)ccn1` [compound C], for which the Src phosphorylation result in experiment [1] (Compound C) is reported as “no effect”. Also, the LC3-II expression result in experiment [1] was “decreased”.
On to `CN(Cc1cnc2nc(N)nc(N)c2n1)c1ccc(C(=O)N[C@@H](CCC(=O)O)C(=O)O)cc1` [methotrexate], for which the “level of GFRα1 expression” value in experiment [2] is “no or little effect”. Further, the “cell proliferation of GFRα1-deficient cells compared to control cells” value in experiment [3] is listed as “little or no effect”.
On the same counts, the results for `COc1cccc2c1C(=O)c1c(O)c3c(c(O)c1C2=O)C[C@@](O)(C(=O)CO)C[C@@H]3O[C@H]1C[C@H](N)[C@H](O)[C@H](C)O1` [doxorubicin] are “no or little effect” and “little or no effect”.
On to `Cc1ccc(-c2nn(C(C)(C)C)c3ncnc(N)c23)cc1` [PP1], for which the AMPK phosphoryation result in experiment [1] (PP1 5 μM) is on record as “decreased”. In addition, the LC3-II expression entry in experiment [1] is “decreased”.
Take `CCN(CC)CCCC(C)Nc1ccnc2cc(Cl)ccc12` (centres unmarked) [CQ, chloroquine]: the number of colonies entry in experiment [4] is given as “effectively reduced”. Besides, in the experiment on MG-63/GFRα1 tumors, the tumor progression result was “allowed the tumors to survive” and the “tumor volume compared to PBS-treated mice” value is reported as “decreased”.
